From PubChem BioAssay (NCI)
Where “and” joins values, the source holds several entries; their conditions need not be identical. Equal entries are not always repeated.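 Step 1: Grow cells in 96-well plates. Step 2: Expose to compound for 48 hours at 5 concentrations. Step 3: Interpolate endpoints linearly; if unreached, use highest concentration. At the GI50, growth is halved. TGI marks complete inhibition of growth.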

How the values were obtained:
Test in all cases: NCI tumour cell line growth inhibition, 48 h
LXFL 529 NSCLC = test system: LXFL 529 NSCLC
SNB-78 CNS = test system: SNB-78 CNS
M19-MEL melanoma = test system: M19-MEL melanoma
DMS 114 small cell lung = test system: DMS 114 small cell lung
DMS 273 small cell lung = test system: DMS 273 small cell lung
XF 498 CNS = test system: XF 498 CNS
RXF-631 renal = test system: RXF-631 renal
HOP-18 NSCLC = test system: HOP-18 NSCLC
MDA-N = test system: MDA-N
P388/ADR leukemia = test system: P388/ADR leukemia
P388 leukemia = test system: P388 leukemia

| Compound | TGI (LXFL 529 NSCLC) | TGI (SNB-78 CNS) | TGI (M19-MEL melanoma) | TGI (DMS 114 small cell lung) | TGI (DMS 273 small cell lung) | TGI (XF 498 CNS) | TGI (RXF-631 renal) | TGI (HOP-18 NSCLC) | other results |
| --- | --- | --- | --- | --- | --- | --- | --- | --- | --- |
| CC1(C)CCC(Sc2ccccc2)O1 (stereo not given) | > 100 µM | > 100 µM | > 100 µM | > 100 µM | > 100 µM | > 100 µM |  |  |  |
| Cc1ccc(NC(=O)CCCC(=O)CC(=O)c2ccc(Br)cc2)cc1 | > 100 µM | > 100 µM | > 100 µM | > 100 µM | > 100 µM |  | > 100 µM | > 100 µM |  |
| CC(=O)OCC1OC(n2c(=S)n(-c3ccc([N+](=O)[O-])cc3)c(=O)c3ccccc32)C(OC(C)=O)C(OC(C)=O)C1OC(C)=O (stereo not given) | 39.9 µM and 50.6 µM | > 100 µM and 74.5 µM | > 100 µM and 55.4 µM | > 100 µM and 53.8 µM | 57.3 µM |  | 57.7 µM and 51 µM | 64.4 µM | GI50 (LXFL 529 NSCLC): 11.3 µM and 17.4 µM; GI50 (SNB-78 CNS): 34.8 µM and 24.1 µM; GI50 (M19-MEL melanoma): 29.7 µM and 16.8 µM; GI50 (DMS 114 small cell lung): 23.7 µM and 18.1 µM; TGI (MDA-N): 82.3 µM |
| C=C1C[C@H]2C=Nc3cc(OCCCOc4cc5c(cc4OC)C(=O)N4CC(=C)C[C@H]4C=N5)c(OC)cc3C(=O)N2C1 |  |  |  |  |  |  |  |  | TGI (MDA-N): 0.0256 µM |
| COC(=O)CCSC(=O)Nc1ccc(N=Nc2ccccc2)cc1 | > 100 µM | > 100 µM | > 100 µM | > 100 µM | > 100 µM | > 100 µM | > 100 µM | > 100 µM |  |
| Cc1ccc(C(=O)CC2(O)C(=O)Nc3c(C)cc(Cl)cc32)cc1 (stereo not given) | > 100 µM | > 100 µM |  | > 100 µM | > 100 µM | > 100 µM | > 100 µM | > 100 µM |  |
| Cn1c(CBr)nc2c1C(=O)c1nc(CBr)[nH]c(=O)c1C2=O | > 100 µM |  | 68.6 µM | > 100 µM |  |  | > 100 µM | > 100 µM |  |
| COc1cc[c]([Sn]([c]2ccc(OC)cc2)([c]2ccc(OC)cc2)[c]2ccc(OC)cc2)cc1 | 36.4 µM | 71 µM | > 100 µM | > 100 µM | 96.5 µM | > 100 µM |  | 21.1 µM | GI50 (LXFL 529 NSCLC): 15.8 µM; GI50 (SNB-78 CNS): 23.7 µM; GI50 (M19-MEL melanoma): 34.6 µM; GI50 (DMS 114 small cell lung): 23.5 µM; GI50 (DMS 273 small cell lung): 25.2 µM; GI50 (XF 498 CNS): > 100 µM; GI50 (HOP-18 NSCLC): 3.81 µM |
| CCCNC(=O)Nc1c([N+](=O)[O-])cc(C(F)(F)F)cc1[N+](=O)[O-] | > 100 µM | > 100 µM | 69.1 µM |  | > 100 µM | > 100 µM | > 100 µM |  |  |
| Cc1ccc(CNc2ccc(Br)cc2)cc1 |  |  |  |  |  |  |  |  | TGI (MDA-N): > 100 µM |
| Nc1nnc2c(-c3ccccc3)[nH]nc2n1 | > 100 µM | > 100 µM |  | > 100 µM | > 100 µM |  |  |  |  |
| N#CCCn1[nH]c(=O)c(Cl)c(Cl)c1=O | 30.6 µM | 41.9 µM | 42 µM | 36.5 µM |  | 29.6 µM | 37.1 µM | 30.6 µM |  |
| CC1CC2C3CCC4=CC(=O)C=CC4(C)C3(F)C(O)CC2(C)C1(O)C(=O)COP(=O)(O)O (stereo not given) | > 100 µM | > 100 µM | > 100 µM |  | > 100 µM | > 100 µM |  | > 100 µM | TGI (MDA-N): 47.4 µM |
| NC(=O)c1ccc2c(c1)-c1nc-2nc2[n-]c(nc3nc(nc4[n-]c(n1)c1ccc(C(N)=O)cc41)-c1ccc(C(N)=O)cc1-3)c1ccc(C(N)=O)cc21.[Co+2] | > 50 µM | > 50 µM |  | > 50 µM | > 50 µM |  | > 50 µM | > 50 µM | GI50 (LXFL 529 NSCLC): 35.9 µM; GI50 (SNB-78 CNS): > 50 µM; GI50 (DMS 114 small cell lung): 19.6 µM; GI50 (RXF-631 renal): > 50 µM; GI50 (DMS 273 small cell lung): > 50 µM; GI50 (HOP-18 NSCLC): > 50 µM |
| CN(C)CCNC(=O)c1cccc2c1nc(-c1ccc(F)cc1)c1ccccc12 |  | 25.7 µM | 18.6 µM | 19.2 µM | 13 µM |  |  | 27.4 µM |  |
| C[C@H]1CC[P+](Cc2ccccc2)(c2ccccc2)C1 (stereo not given in full) | > 100 µM |  | > 100 µM | > 100 µM | > 100 µM |  |  | > 100 µM |  |
| COC(=O)NC1C(C)OC(OC2C/C=C(/C)C3C=CC4C(OC5CC(OC6CCC(OC7CC(O)C(OC8CCC(O)C(C)O8)C(C)O7)C(C)O6)C(OC(C)=O)C(C)O5)C(C)CC(C)C4C3(C)/C(O)=C3/C(=O)OC4(CC(C=O)=CC(O)C4/C=C\2C)C3=O)CC1(C)[N+](=O)[O-] (stereo not given) | 1.97 µM | 15.4 µM and 26.7 µM | 2.02 µM and 0.473 µM | 1.76 µM and 0.494 µM | 3.73 µM and 3.26 µM | 0.5 µM and 2.06 µM | 10.8 µM | 14.5 µM and 3.62 µM | TGI (P388/ADR leukemia): 17.3 µM; TGI (P388 leukemia): 2.05 µM; GI50 (SNB-78 CNS): 0.59 µM; GI50 (M19-MEL melanoma): 0.0982 µM; GI50 (DMS 114 small cell lung): 0.19 µM; GI50 (DMS 273 small cell lung): 0.414 µM; GI50 (XF 498 CNS): 0.385 µM; TGI (MDA-N): 3.52 µM |
| COC1=C(N)C(=O)c2nc(-c3nc(C(=O)O)c(C)c(-c4ccc(OC)c(OC)c4O)c3N)ccc2C1=O | 0.0206 µM | 0.0324 µM and 0.0996 µM | 0.0224 µM and 0.0234 µM | 0.0118 µM | 0.0194 µM | 0.0179 µM |  | 0.0395 µM | TGI (P388/ADR leukemia): 0.402 µM; TGI (P388 leukemia): 0.473 µM; GI50 (MDA-N): 0.0117 µM; TGI (MDA-N): 0.0269 µM and 0.0153 µM |
| COc1ccc(-c2cc(=O)c3c(O)c(OC)c(OC)c(OC)c3o2)cc1OC |  |  |  |  |  |  |  |  | TGI (MDA-N): > 100 µM |

| Compound | TGI (LXFL 529 NSCLC) | TGI (SNB-78 CNS) | TGI (M19-MEL melanoma) | TGI (DMS 114 small cell lung) | TGI (DMS 273 small cell lung) | TGI (XF 498 CNS) | TGI (RXF-631 renal) | TGI (HOP-18 NSCLC) | other results |
| --- | --- | --- | --- | --- | --- | --- | --- | --- | --- |
| COC(=O)C(=O)Cc1nc2ccccc2s1 | > 100 µM | > 100 µM | > 100 µM | > 100 µM | > 100 µM |  |  | > 100 µM |  |
| O=C1C(c2ccccc2)=C(c2ccccc2)C(c2ccc(Cc3ccc(C4=C(c5ccccc5)C(=O)C(c5ccccc5)=C4c4ccccc4)cc3)cc2)=C1c1ccccc1 |  | > 100 µM | > 100 µM | > 100 µM | > 100 µM | > 100 µM |  | > 100 µM |  |
| Cc1nc(N)nc(N)c1CCCCc1ccc(N)cc1 | 20.4 µM | 27.2 µM | 25.5 µM |  |  | 23.6 µM |  |  |  |
| Nc1ccc2n[se]nc2c1 | > 100 µM | > 100 µM | > 100 µM | > 100 µM | > 100 µM | > 100 µM | > 100 µM | > 100 µM |  |
| CC(C)(CN1C(=O)C(Cl)=C(Cl)C1=O)CN1C(=O)C(Cl)=C(Cl)C1=O | 19.7 µM | 45.1 µM | 25 µM | 25.2 µM | 26.8 µM |  |  | 36.1 µM |  |
| Nc1nncc2c1c(Br)cn2C1OC(CO)C(O)C1O (stereo not given) | > 100 µM | > 100 µM | > 100 µM | 62.6 µM | > 100 µM | > 100 µM | > 100 µM | > 100 µM |  |
| O=S1(=O)N2CN3CN(C2)CN1C3 | 34.1 µM | 118 µM | 337 µM | 55.3 µM | > 31.6 µM and 142 µM |  |  | > 86.4 µM and 91.6 µM | TGI (P388/ADR leukemia): 44 µM; TGI (P388 leukemia): 47.6 µM; GI50 (DMS 273 small cell lung): 32.8 µM; GI50 (HOP-18 NSCLC): 24.7 µM |
| CCOC(=O)C(C)(NC(=O)c1ccc(NCc2ccc3nc(NC(=O)c4ccccc4)nc(NC(=O)c4ccccc4)c3c2)cc1)C(=O)OCC |  | 45.4 µM | 24.9 µM | 42 µM | 27.5 µM |  | 51 µM | > 100 µM |  |
| O=C1CC2OCC=C3CN4CCC56c7ccccc7N1C5C2C3CC46O (stereo not given) |  |  |  |  |  |  |  |  | TGI (MDA-N): > 100 µM |
| COC1C2C[C@@H](O)CCC2C(C(=O)OCCl)C[C@H]1O (stereo not given in full) | > 100 µM | > 100 µM | > 100 µM | > 100 µM | > 100 µM |  | > 100 µM | > 100 µM |  |
| O=C1c2ccccc2C(=O)c2cc3c(cc21)CS(=O)C3 | > 100 µM |  | > 100 µM | > 100 µM | > 100 µM |  |  | > 100 µM |  |
| Oc1ccc(Br)cc1C=Nc1cccc(C(F)(F)F)c1 |  |  |  |  |  |  |  |  | TGI (MDA-N): > 100 µM |
| O=[N+]([O-])c1ccc(C2=Nc3ccccc3S(=O)C(c3ccccc3)C2)cc1 (stereo not given) | 26.7 µM |  | 29.6 µM | 42.8 µM | 52.5 µM | 47.9 µM | 40.1 µM | > 100 µM |  |
| COc1cccc2c1-c1nc(N)c3c(OC)cccc3c1C2=O |  |  |  |  |  |  |  |  | TGI (MDA-N): > 100 µM |
| CC(=O)C1CCN(c2ccccc2)C1 (stereo not given) |  | > 100 µM | > 100 µM | > 100 µM | > 100 µM | > 100 µM |  |  |  |
| O=C(O/N=C1\CCCC\C1=C/c1ccccc1)c1ccc([N+](=O)[O-])cc1 | > 100 µM | > 100 µM | > 100 µM | > 100 µM | > 100 µM |  | > 100 µM | > 100 µM |  |
| CN=c1ss/c(=N\C(=S)N(C)C)n1C | > 100 µM | > 100 µM | > 100 µM | > 100 µM | > 100 µM | > 100 µM |  | > 100 µM |  |
| O=C(c1ccc(O)cc1O)C1C(c2ccc(O)cc2)OC(c2ccc(O)cc2)C1C(=O)c1ccc(O)cc1O (stereo not given) | 34.7 µM | > 100 µM | 36.5 µM |  | 29.5 µM | 32.3 µM |  |  |  |
